This is an account of results in patent publication US20240409746A1, “AZO IRON COMPLEX DYE, INK COMPOSITION CONTAINING SAME, AND METHOD FOR PRODUCING AZO IRON COMPLEX DYE” (ORIENT CHEMICAL INDUSTRIES CO., LTD., priority 2021, published 2024).

SMILES strings stand for the structures.

Assay type in all cases: physicochemical
Data set [1] is described as follows: Visual observation of hue of 5% solution of the azo iron complex dye. To be noted: for Hue of 5% methyl ethyl ketone solution with azo iron complex dye: 5% in methyl ethyl ketone, visually observed. As to the method: A solution of the azo iron complex dye A-1 in methyl ethyl ketone was prepared at a concentration of 10 mg/1000 ml (10 ppm). The absorbance of this solution was measured using an ultraviolet-visible spectrophotometer (available from Shimadzu Corporation; trade name UV-1700).
(§1) Then the azo iron complex dyes solutions were filtered through a membrane filter (pore size 1 μm, PTFE) under reduced pressure, and the maximum concentrations of the azo iron complex dyes were defined as the concentrations at which it was confirmed that there were no insoluble substances on the membrane filter. Then the hue of the methyl ethyl ketone solution with the azo iron complex dyes concentrations of 5% was visually observed.

Data set [2] in a line: Solubility evaluation (maximum concentration with no insoluble substances on the membrane filter). To be noted: for Maximum concentration (%) Ethanol / Maximum concentration (%) Methyl ethyl ketone: tested at 5%, 10%, 15% and 20%, ultrasonically dispersed 10 minutes, 1 μm PTFE membrane filter.
Description: as §1

Data set [3] can be described thus: Electrical conductivity measurement. The settings on record: 6% solution in methyl ethyl ketone. The source says:
The azo iron complex dye of the present invention can be suitably used in the ink composition for a CIJ printer. Herein, the electrical conductivity K of the azo iron complex dye is preferably 300-2200 μS/cm, and more preferably 600-2000 μS/cm. As long as the electrical conductivity is within this range, the charge of the ink composition for a CIJ printer containing the azo iron complex dye can be stably and freely controlled, so that the ejection stability of the ink composition can be improved. Note that the electrical conductivity K is measured by inserting and immersing an electrode of an electrical conductivity meter in a 6 mass % methyl ethyl ketone solution of the azo iron complex dye.
A 6% solution of the azo iron complex dye A-1 in methyl ethyl ketone was prepared and measured using an electrical conductivity meter (available from Eutech Instruments Pte, Ltd.; trade name CyberScan CON100). As a result, the electrical conductivity K was 1530 μS/cm. Furthermore, a 6% solution of the azo iron complex dye A-1 in methyl ethyl ketone was prepared and measured using a conductivity meter (available from Knick Co., Ltd.; trade name Conducell 4USF-PG120). As a result, the electrical conductivity K was […].

The nature of data set [4]: Dissolution stability of dye solution on standing.

Consider `O=[N+]([O-])c1ccc2c(c1)[O][Fe]1([O]c3cc([N+](=O)[O-])ccc3N=Nc3c(ccc4ccccc34)[O]1)[O]c1ccc3ccccc3c1N=N2` (centres unmarked) [B-1], for which, in data set [1], the “Hue of 5% methyl ethyl ketone solution with azo iron complex dye” value is “reddish brown hue” and the “Color of solution adjusted to a concentration of 5%” value is “dark brown color”. Besides, in data set [2], the “Maximum concentration (%) Ethanol” value came out at 5%; the “Solubility in both methyl ethyl ketone and ethanol (in words)” value was “good solubility”; the “Maximum concentration (%) Methyl ethyl ketone” value worked out at 10%. Besides, the “Electrical conductivity K” value in data set [3] (CyberScan CON100) was 1450 μS/cm.
For `CCCCN(CCCC)c1ccc2c(c1)[O][Fe]1([O]c3cc(N(CCCC)CCCC)ccc3N=Nc3cc(C)c(N=Nc4ccc(C#N)cc4)cc3[O]1)[O]c1cc(N=Nc3ccc(C#N)cc3)c(C)cc1N=N2` (centres unmarked) [B-2], in data set [1], the “Hue of 5% methyl ethyl ketone solution with azo iron complex dye” value is listed as “black color within a practical range” and the “Color of solution adjusted to a concentration of 5%” value is “sufficient black color”. For the same molecule, in data set [2], the “Maximum concentration (%) Ethanol” value is on record as below 5%; the “Solubility in both methyl ethyl ketone and ethanol (in words)” value is on record as “low solubility”; the “Maximum concentration (%) Methyl ethyl ketone” value was found to be 5%. Besides, in data set [3] (immediately after dissolution), the “Electrical conductivity K immediately after dissolution” value was 165 μS/cm. In addition, the “Dissolution stability, left overnight” value in data set [4] (5% solution, left overnight (8 hours)) is on record as “precipitation was observed”. Besides, the “Dissolution stability in ethanol” value in data set [4] (ethanol solution allowed to stand for 10 minutes) was “precipitate was confirmed”.
